# Measured values: article PMC10254366, “The Structure of Maltooctaose-Bound Escherichia coli Branching Enzyme Suggests a Mechanism for Donor Chain Specificity” (Molecules, 2023)
# Molecular target: T1, EcBE (E. coli branching enzyme) (Escherichia coli, UniProt P07762)
# T1 construct: gene glgB; N-domain removed (first 113 amino acids of full-length EcBE); CBM48, catalytic and C-terminal domains kept; overexpressed in E. coli; four molecules per asymmetric unit
# T1 sequence (P07762 114-728): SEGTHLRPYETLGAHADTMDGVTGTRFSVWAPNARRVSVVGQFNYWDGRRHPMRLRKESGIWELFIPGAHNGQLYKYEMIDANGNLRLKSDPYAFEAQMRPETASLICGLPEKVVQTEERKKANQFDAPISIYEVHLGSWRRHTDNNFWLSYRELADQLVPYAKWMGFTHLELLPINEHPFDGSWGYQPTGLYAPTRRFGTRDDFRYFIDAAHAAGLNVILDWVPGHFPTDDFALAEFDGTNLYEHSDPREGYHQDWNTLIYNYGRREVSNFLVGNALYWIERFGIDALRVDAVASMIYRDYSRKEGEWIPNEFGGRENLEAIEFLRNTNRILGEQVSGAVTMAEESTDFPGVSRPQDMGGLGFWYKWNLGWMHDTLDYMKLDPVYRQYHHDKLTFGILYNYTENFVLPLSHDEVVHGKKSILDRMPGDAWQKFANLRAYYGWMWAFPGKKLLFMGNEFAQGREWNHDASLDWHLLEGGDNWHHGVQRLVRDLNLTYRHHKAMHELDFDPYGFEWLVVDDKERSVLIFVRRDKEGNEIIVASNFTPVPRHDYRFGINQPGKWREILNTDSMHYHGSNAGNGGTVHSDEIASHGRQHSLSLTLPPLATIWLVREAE
# Test: X-ray crystallography, crystal soak, […] Å
# Format: binding
# Conditions: crystals soaked in 150 mM maltooctaose 5.5 h, 1.3 M ammonium tartrate pH 7.6, 10% PEG 4000; surface sites I-V and VIII-XII, not active site
smiles,measurement,value
"OC[C@H]1O[C@H](O[C@H]2[C@H](O)[C@@H](O)[C@@H](O[C@H]3[C@H](O)[C@@H](O)[C@@H](O[C@H]4[C@H](O)[C@@H](O)[C@@H](O[C@H]5[C@H](O)[C@@H](O)[C@@H](O[C@H]6[C@H](O)[C@@H](O)[C@@H](O[C@H]7[C@H](O)[C@@H](O)[C@@H](O[C@H]8[C@H](O)[C@@H](O)C(O)O[C@@H]8CO)O[C@@H]7CO)O[C@@H]6CO)O[C@@H]5CO)O[C@@H]4CO)O[C@@H]3CO)O[C@@H]2CO)[C@H](O)[C@@H](O)[C@@H]1O (stereo partly shown) [M8, maltooctaose]","X-ray crystallography, crystal soak, 3.0 Å",we report the crystal structure of the maltooctaose-bound branching enzyme from the enterobacteria E. coli
